These results are taken from PubChem BioAssay (NCI).

Among the test systems are 786-0 renal; CCRF-CEM leukemia; EKVX NSCLC; HL-60(TB) leukemia; NCI/ADR-RES ovarian; SK-MEL-5 melanoma; SNB-75 CNS; SR leukemia; UACC-62 melanoma; MALME-3M melanoma.
What all share (assay): DTP human tumour cell line panel, 48 h

The structures appear in SMILES notation. Several values for one entry are separate records, joined by “and”; a condition that tells them apart may be missing. Identical values can stand only once.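 Protocol summary: plate cells (96-well), add compound at 5 concentrations, incubate 48 h, interpolate endpoints linearly. GI50 marks 50% less growth. TGI: concentration producing complete growth inhibition.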 Bounds are passed on as bounds.

On to `CS(=O)(=O)OCC1OC(n2ccc(NC(=O)c3ccccc3)nc2=O)CC1OS(C)(=O)=O` (centres undefined), for which the TGI in the experiment on 786-0 renal, in the experiment with CCRF-CEM leukemia, with EKVX NSCLC, in the experiment with HL-60(TB) leukemia, in the experiment with NCI/ADR-RES ovarian and with SK-MEL-5 melanoma was more than 100 µM each time. Also, the TGI in the experiment on SNB-75 CNS, in the experiment on SR leukemia and with UACC-62 melanoma was more than 100 µM throughout.

For the compound `CCCCCCc1cc2cc(-c3nc4ccccc4[nH]3)c(=Nc3ccccc3C)oc2cc1O`, the GI50 (usually the concentration at which growth is held to half of that of the control) is 1.88 µM with 786-0 renal; 2.77 µM in the experiment on CCRF-CEM leukemia; 2.13 µM in the experiment on HL-60(TB) leukemia; 1.81 µM with MALME-3M melanoma; 4.24 µM with NCI/ADR-RES ovarian; 2 µM in the experiment with SK-MEL-5 melanoma. For the same compound, the GI50 in the experiment with SNB-75 CNS was 1.41 µM; in the experiment with SR leukemia, 1.86 µM; in the experiment with UACC-62 melanoma, 1.62 µM. For the same compound, the TGI (in general, the concentration giving total growth inhibition) in the experiment with 786-0 renal is 3.43 µM; with CCRF-CEM leukemia it was 9.59 µM; in the experiment on HL-60(TB) leukemia, 4.52 µM; with MALME-3M melanoma, 3.62 µM; with NCI/ADR-RES ovarian, 22.7 µM; in the experiment on SK-MEL-5 melanoma, 4.96 µM. The figures for the TGI in the experiment on SNB-75 CNS, with SR leukemia and with UACC-62 melanoma were 3.49 µM, 4.47 µM and 3.41 µM, respectively.

On to `CN(C)CCN(C)CC1COC(C)(C)O1` (centres undefined), for which the concentration for total growth inhibition (TGI) in the experiment on 786-0 renal, in the experiment with CCRF-CEM leukemia, in the experiment with EKVX NSCLC, with HL-60(TB) leukemia, in the experiment on MALME-3M melanoma and in the experiment with SK-MEL-5 melanoma was more than 100 µM throughout. Also, the TGI in the experiment on SNB-75 CNS, with SR leukemia and in the experiment on UACC-62 melanoma was more than 100 µM each time.

Regarding `N#C/C(=N\Nc1ccc(Cl)cc1)C(=O)Nc1cc(-c2ccccc2)nn1-c1ccccc1`, the GI50 with 786-0 renal was 4.05 µM; in the experiment with CCRF-CEM leukemia, 2.27 µM; with EKVX NSCLC, 2.64 µM; in the experiment on HL-60(TB) leukemia, 3.05 µM; with NCI/ADR-RES ovarian, 3.09 µM; in the experiment on SK-MEL-5 melanoma, 1.63 µM. The GI50 in the experiment on SR leukemia was 3.59 µM; in the experiment on UACC-62 melanoma it was 2.03 µM. Further, the TGI was more than 100 µM with 786-0 renal; more than 100 µM with CCRF-CEM leukemia; more than 100 µM with EKVX NSCLC; 9.38 µM in the experiment on HL-60(TB) leukemia; more than 100 µM in the experiment with NCI/ADR-RES ovarian; 4.27 µM with SK-MEL-5 melanoma. For the same compound, the TGI with SR leukemia and in the experiment on UACC-62 melanoma was more than 100 µM each time.

On to `COc1ccc(NC(=O)CC(=O)N2N=C(N(CCC#N)c3ccccc3Cl)CC2c2ccccc2)cc1` (centres undefined), for which the total growth inhibition concentration (TGI) with 786-0 renal, in the experiment on CCRF-CEM leukemia, with EKVX NSCLC, in the experiment with HL-60(TB) leukemia, with MALME-3M melanoma and with SK-MEL-5 melanoma was more than 100 µM throughout. The total growth inhibition concentration (TGI) with SNB-75 CNS, in the experiment with SR leukemia and with UACC-62 melanoma was more than 100 µM each time.

Turning to `Nc1nc2sc3ccccc3c(=O)n2n1`, the TGI with 786-0 renal, in the experiment on CCRF-CEM leukemia, in the experiment with EKVX NSCLC, in the experiment with HL-60(TB) leukemia, with MALME-3M melanoma and in the experiment on SK-MEL-5 melanoma was more than 100 µM in each case. The TGI in the experiment on SNB-75 CNS, in the experiment on SR leukemia and with UACC-62 melanoma was more than 100 µM throughout.

As to `CCOC(=O)c1c(-c2ccccc2)oc(-c2ccccc2)c1C(=O)OCC`, the total growth inhibition concentration (TGI) with 786-0 renal, in the experiment with CCRF-CEM leukemia, in the experiment on EKVX NSCLC, in the experiment with HL-60(TB) leukemia, in the experiment with MALME-3M melanoma and with SK-MEL-5 melanoma was more than 100 µM in each case. The TGI in the experiment with SNB-75 CNS, in the experiment with SR leukemia and with UACC-62 melanoma was more than 100 µM each time.

For the compound `Cc1noc2cccc(OCc3ccccc3)c12`, the concentration for total growth inhibition (TGI) with 786-0 renal is more than 100 µM; in the experiment with CCRF-CEM leukemia, more than 100 µM; in the experiment with EKVX NSCLC, more than 100 µM; in the experiment with HL-60(TB) leukemia, more than 100 µM; in the experiment on MALME-3M melanoma it was more than 100 µM; with SK-MEL-5 melanoma, 41.5 µM. Further, the total growth inhibition concentration (TGI) in the experiment with SNB-75 CNS was 87.6 µM; with SR leukemia, more than 100 µM; in the experiment on UACC-62 melanoma, more than 100 µM.

Take `COc1ccc2c(c1O)C13CCN(C)C(C2)C1CCC1(C3)OCCO1` (centres undefined): the TGI in the experiment with 786-0 renal, with EKVX NSCLC, in the experiment with MALME-3M melanoma, in the experiment with NCI/ADR-RES ovarian, with SK-MEL-5 melanoma and with SNB-75 CNS was more than 100 µM each time. Further, the total growth inhibition concentration (TGI) in the experiment on SR leukemia and in the experiment on UACC-62 melanoma was more than 100 µM in each case.

Turning to `O=S(=O)(N/N=C/c1ccc(Cl)c(Cl)c1)c1ccccc1`, the total growth inhibition concentration (TGI) with 786-0 renal, with CCRF-CEM leukemia, in the experiment with EKVX NSCLC, in the experiment on HL-60(TB) leukemia, with MALME-3M melanoma and in the experiment with SK-MEL-5 melanoma was more than 100 µM each time. Further, the TGI in the experiment with SNB-75 CNS, in the experiment with SR leukemia and in the experiment with UACC-62 melanoma was more than 100 µM throughout.

Take `S=C(N/N=C(/c1ccccc1)c1ccccn1)N1CCCCC1`: the concentration for 50% growth inhibition (GI50) with 786-0 renal was less than 0.001 µM; in the experiment on CCRF-CEM leukemia it was less than 0.001 µM; in the experiment on EKVX NSCLC, 1.21 µM; in the experiment with MALME-3M melanoma, 0.00735 µM; in the experiment with NCI/ADR-RES ovarian it was less than 0.001 µM; in the experiment with SR leukemia, less than 0.001 µM. In addition, the GI50 in the experiment on UACC-62 melanoma was 0.965 µM. In addition, the TGI in the experiment on 786-0 renal is 1.87 µM and 1.88 µM; with CCRF-CEM leukemia, 0.0332 µM; in the experiment with EKVX NSCLC it was 2.45 µM and 0.558 µM; with MALME-3M melanoma it was 2.27 µM and 2.2 µM; in the experiment with NCI/ADR-RES ovarian, 1.87 µM and 0.986 µM; in the experiment on SK-MEL-5 melanoma, 1.38 µM and 1.56 µM. The values for the concentration for total growth inhibition (TGI) with SNB-75 CNS, with SR leukemia and in the experiment with UACC-62 melanoma were 2.92 µM, less than 0.001 µM and 3.16 µM, respectively.

With `O=S(=O)(Cc1ccc(Cl)cc1Cl)c1ccc(Cl)cc1`, the GI50 was 1.84 µM with 786-0 renal; 0.505 µM in the experiment with CCRF-CEM leukemia; 2.11 µM with EKVX NSCLC; 0.37 µM in the experiment on HL-60(TB) leukemia; 0.478 µM with NCI/ADR-RES ovarian; 0.437 µM in the experiment with SK-MEL-5 melanoma. Besides, the results for the GI50 with SNB-75 CNS, in the experiment with SR leukemia and in the experiment on UACC-62 melanoma were 0.732 µM, 0.296 µM and 0.502 µM, respectively. Besides, the total growth inhibition concentration (TGI) in the experiment with 786-0 renal was more than 100 µM; with CCRF-CEM leukemia it was more than 100 µM; in the experiment on EKVX NSCLC, more than 100 µM; in the experiment with HL-60(TB) leukemia, 17.7 µM; in the experiment on NCI/ADR-RES ovarian, 3.59 µM; with SK-MEL-5 melanoma, 24.4 µM. The TGI is more than 27.5 µM in the experiment with SNB-75 CNS, 11 µM in the experiment with SR leukemia and more than 100 µM in the experiment with UACC-62 melanoma.
